≈ marks a conversion by molar mass, not a printed value.
Key:
Trypanosoma cruzi = experiment: Assay 6 Trypanosoma cruzi intracellular assay (infected H9C2 cells); assay type: cell-based; conditions: H9c2, in Rattus norvegicus, 72 h, infected H9C2 rat cardiomyocytes, read-out: pEC50 value against Trypanosoma cruzi (converted)
Procedure: Compounds were dispensed into black 384-well assay plates (Greiner) by acoustic dispensing (LabCyte ECHO). For potency determinations, eleven-point, one in three dilution curves were generated, with a top concentration of 50 μM. H9C2 rat cardiomyocytes cells were dispensed in T225 tissue culture flasks and after 4 hours they were infected during 18 hours with T. cruzi trypomastigotes in the same T225 tissue culture flasks at a multiplicity of infection of 1. Next, any remaining free trypomastigotes were washed away with PBS and the infected H9C2 cells were harvested by trypsinisation. The infected H9C2 cells were then plated into 384-well plates containing the compounds to be tested, at 2500 cells per well in DMEM media with 2% FBS, 1% Penicillin/Streptomocin, 2 mM L-Glutamine, 1 mM Na Pyruvate and 25 mM HEPES. After 72 h incubation at 37° C. in presence of 5% CO2, the plates were fixed and stained with 4% formaldehyde and 2 μM Draq5 for 3 hours at room temperature. The plates were imaged on a Perkin Elmer Opera high-content imaging system using a 20× air objective. Images were analysed using the Acapella building blocks system (Perkin Elmer). The image analysis algorithm first identified the H9C2 nuclei followed by demarcation of the cytoplasm and identification of intracellular amastigotes. This algorithm reported mean number of parasites per H9C2 cell, the percentage of infected H9C2 cells and the total number of H9C2 cells.

[1] = Assay 4 solubility assay, ChemiLuminescent Nitrogen Detection (CLND); assay type: physicochemical; conditions: phosphate buffered saline, pH 7.4, aqueous buffer, kinetic from dmso stock, pH 7.4 PBS, from 10 mM DMSO stock, 1 h at room temperature
Procedure: A 10 mM DMSO stock solution of the compound was prepared. Solvents and Buffers Organic solvents of HPLC grade were used. Ultra pure water (Milli-Q grade) was used. Buffers were prepared with ultra pure water and filtered using 0.45μ cameo filters. Aqueous Buffer Solution: Phosphate Buffer Saline (PBS) @ pH 7.4 was prepared from Sigma dry powder packs, P-3813. Each one was diluted to 1 liter with deionised water. The pH was checked before the solution was used II. Procedures. • a) DMSO concentration was measured. DMSO blanks and ondansetron and caffeine standards were added to the plate (column 12, A, B, C, & D for the blanks and E, F, G, & H for the standards). Plates were covered with foil. When the UV and CLND detectors baselines appeared to be stable, the CLND was zeroed. • b) Once DMSO concentration measurements were complete, a filtration plate was prepared from each parent plate by diluting 5 μl of the 10 mM DMSO stock solution to […] with pH7.4 PBS. • c) After the plates were prepared, they were covered with a plate lid and left to incubate for 1 h at room temperature. • d) Sample was filtered using MILLIPORE MultiScreen Solubility (MSSLBPC10) Filtration Plates, to NUNC V well plates. The filter plate was removed and the NUNC plate was sealed with a power seal plate seal. • e) HPLC/CLND instruments were set up and left to equilibrate. Mobile phases (MeOH:H2O 1:1, flow rate: 0.2 ml/min, sensitivity z10, Gain High). The samples were run. • f) The assay curve fit was done by linear regression and solubility values were reported in μM.

Row | solubility at 1 h [1] | SMILES | EC50 (Trypanosoma cruzi)
1 |  | O=C(Nc1ccc(F)c(-c2cn3nc(C4CCOC4)cnc3n2)c1)N1CCCC1 (racemic) [Example 23, (+,−)-N-(4-fluoro-3-(2-(tetrahydrofuran-3-yl)imidazo[1,2-b] [1,2,4]triazin-6-yl)phenyl)pyrrolidine-1-carboxamide] | 5.01 to 631 nM
2 | 10 to 83 µM (≈ 3.99 to 33.1 µg/mL) | COC(=O)Nc1cnc2nc(-c3cc(NC(=O)N4CCCC4)ccc3F)cn2n1 [Example 55, methyl (6-(2-fluoro-5-(pyrrolidine-1-carboxamido)phenyl)imidazo[1,2-b][1,2,4]triazin-2-yl)carbamate] | 5.01 to 631 nM
3 | 10 to 83 µM (≈ 4.39 to 36.5 µg/mL) | O=C(Nc1cnc2nc(-c3cc(NC(=O)N4CCCC4)ccc3F)cn2n1)C1CCCO1 (centres unmarked) [Example 49, N-(4-fluoro-3-(2-(tetra-hydrofuran-2-carboxamido)imidazo [1,2-b][1,2,4]triazin-6-yl)phenyl)pyrrolidine-1-carboxamide] | 5.01 to 631 nM
4 | 100 to 416 µM (≈ 42.5 to 177 µg/mL) | Cc1c(-c2cc(NC(=O)N3CCCC3)ccc2F)nc2ncc(N3CCOCC3)nn12 [Example 27, N-(4-fluoro-3-(7-methyl-2-morpholinoimidazo [1,2-b][1,2,4]triazin-6-yl)phenyl)pyrrolidine-1-carboxamide] | 5.01 to 631 nM
5 | 100 to 416 µM (≈ 41 to 171 µg/mL) | O=C(Nc1ccc(F)c(-c2cn3nc(N4CCNCC4)cnc3n2)c1)N1CCCC1 [Example 56, N-(4-fluoro-3-(2-(piperazin-1-yl)imidazo [1,2-b][1,2,4]triazin-6-yl)phenyl)pyrrolidine-1-carboxamide] | 5.01 to 631 nM
6 | 100 to 416 µM (≈ 37 to 154 µg/mL) | CC(O)c1cnc2nc(-c3cc(NC(=O)N4CCCC4)ccc3F)cn2n1 (racemic) [Example 24, (+,−)-N-(4-fluoro-3-(2-(1-hydroxyethyl)imidazo [1,2-b][1,2,4]triazin-6-yl)phenyl)pyrrolidine-1-carboxamide] | 5.01 to 631 nM
7 | 100 to 416 µM (≈ 42.4 to 177 µg/mL) | CN1CCN(c2cnc3nc(-c4cc(NC(=O)N5CCCC5)ccc4F)cn3n2)CC1 [Example 57, N-(4-fluoro-3-(2-(4-methylpiperazin-1-yl)imidazo[1,2-b][1,2,4]triazin-6-yl)phenyl) pyrrolidine-1-carboxamide] | 5.01 to 631 nM
8 | 10 to 83 µM (≈ 4.27 to 35.5 µg/mL) | CC(C)OC(=O)Nc1cnc2nc(-c3cc(NC(=O)N4CCCC4)ccc3F)cn2n1 [Example 54, isopropyl (6-(2-fluoro-5-(pyrrolidine-1-carboxamido)phenyl)imidazo[1,2-b][1,2,4]triazin-2-yl)carbamate] | 5.01 to 631 nM
9 | 10 to 83 µM (≈ 4.03 to 33.5 µg/mL) | O=C(Nc1ccc(F)c(-c2cn3nc(-c4ccccn4)cnc3n2)c1)N1CCCC1 [Example 35, N-(4-fluoro-3-(2-(pyridin-2-yl)imidazo[1,2-b] [1,2,4]triazin-6-yl)phenyl)pyrrolidine-1-carboxamide] | 5.01 to 631 nM
10 | 10 to 83 µM (≈ 5.02 to 41.6 µg/mL) | O=C(Nc1ccc(F)c(-c2cn3nc(-c4ccccc4CN4CCOCC4)cnc3n2)c1)N1CCCC1 [Example 20, N-(4-fluoro-3-(2-(2-(morpholinomethyl)phenyl)imidazo[1,2-b] [1,2,4]triazin-6-yl)phenyl)pyrrolidine-1-carboxamide] | 5.01 to 631 nM
11 | 10 to 83 µM (≈ 3.8 to 31.6 µg/mL) | CC(C)=Cc1cnc2nc(-c3cc(NC(=O)N4CCCC4)ccc3F)cn2n1 [Example 47, N-(4-fluoro-3-(2-(2-methylprop-1-en-1-yl)imidazo[1,2-b][1,2,4]triazin-6-yl)phenyl) pyrrolidine-1-carboxamide] | 5.01 to 631 nM
12 |  | O=C(Nc1ccc(F)c(-c2cn3nc(N4CCCOCC4)cnc3n2)c1)N1CCCC1 [Example 11, N-(3-(2-(1,4-oxazepan-4-yl)imidazo[1,2-b][1,2,4]triazin-6-yl)-4-fluorophenyl)pyrrolidine-1-carboxamide] | 5.01 to 631 nM
13 |  | COCCOc1ccc(-c2cnc3nc(-c4cc(NC(=O)N5CCCC5)ccc4F)cn3n2)cc1 [Example 21, N-(4-fluoro-3-(2-(4-(2-methoxyethoxy)phenyl)imidazo[1,2-b][1,2,4]triazin-6-yl)phenyl) pyrrolidine-1-carboxamide] | 5.01 to 631 nM

From patent publication US10065965B2, “Imidazo[1,2-B][1,2,4]triazine derivatives as antiparasitic agents” (GlaxoSmithKline Intellectual Property Development Limited, priority 2015, dated 2018)
